Measurements: patent US20040063790A1, “Methods for inhibition of angiogenesis” (The Scripps Research Institute, priority 1996, published 2004)
[ ]: non-standard residue; d: D form.

Key:
M21-L melanoma tumor = assay: In vivo chimeric mouse:human assay; design: species or system SCID mouse; conditions: intravenous, FIG. 18
Experimental: An in vivo chimeric mouse:human model was generated by replacing a portion of skin from a SCID mouse with human neonatal foreskin (FIG. 4). After the skin graft was established, the human foreskin was inoculated with carcinoma cells. After a measurable tumor was established, either an αvβ3 antagonist or PBS was injected into the mouse tail vein. Following a 2-3 week period, the tumor was excised and analyzed by weight and histology.
The in vivo chimeric mouse:human model is prepared essentially as described in Yan, et al., J. Clin. Invest., 91:986-996 (1993). Briefly, a 2 cm^2 square area of skin was surgically removed from a SCID mouse (6-8 weeks of age) and replaced with a human foreskin. The mouse was anesthetized and the hair removed from a 5 cm^2 area on each side of the lateral abdominal region by shaving. Two circular graft beds of 2 cm^2 were prepared by removing the full thickness of skin down to the fascia. Full thickness human skin grafts of the same size derived from human neonatal foreskin were placed onto the wound beds and sutured into place. […]
In a procedure similar to that described above for monoclonal antibodies, peptide antagonists of αvβ3 were injected intravenously into the tail vein of SCID mice having measurable M21-L tumors. […] The mean volume and weight of resected tumors following treatment were determined with the results respectively shown in FIGS. 19A and 19B.

UCLAP-3 tumors = assay: Tumor regression in the CAM assay, UCLAP-3; format: in vivo, chick; conditions: 100 μg intravenously 18 hours post-implantation; FIG. 15
Experimental: As described in Example 5, in addition to visually assessing the effect of anti-αvβ3 antagonists on growth factor or tumor induced angiogenesis, the effect of the antagonists was also assessed by measuring any changes to the tumor mass following exposure. For this analysis, the tumor-induced angiogenesis CAM assay system was prepared as described in Example 4C. At the end of the 7 day incubation period, the resulting tumors were resected from the CAMs and trimmed free of any residual CAM tissue, washed with 1 ml of phosphate buffer saline and wet weights were determined for each tumor.
To further assess the effects of αvβ3 antagonists on tumor growth and survival, fragments of human melanoma and fragments of carcinomas of the lung, pancreas, and larynx were placed on CAMS of 10-day old embryos as described in Example 3A.
Additional tumor regression assays were performed with the αvβ3-reactive peptide 85189 (SEQ ID NO: 15) against 69601 as a control. The assays were performed as described above with the exception that 100 μg of peptide was intravenously injected into the CAM at 18 hours post-implantation. After 48 hours more, the tumors were then resected and wet weights were obtained.

[1] = test system: tumor-induced angiogenesis; assay: CAM assay, tumor-induced angiogenesis, intravenous application; format: in vivo, chick; conditions: intravenous injection
Experimental: Angiogenesis was induced in the CAM assay system by direct apposition of a tumor fragment on the CAM. Preparation of the chick embryo CAM was identical to the procedure described above. Instead of a filter paper disk, a 50 milligram (mg) to 55 mg in weight fragment of one of human melanoma tumor M21-L, human lung carcinoma tumor UCLAP-3, human pancreatic carcinoma cell line FG (Cheresh et al., Cell 58:945-953, 1989), or human laryngeal carcinoma cell line HEp3, all of which are αvβ3 negative tumors, was placed on the CAM in an area originally devoid of blood vessels.
The M21-L human melanoma cell line, UCLAP-3 human lung carcinoma cell line, FG pancreatic carcinoma cell line, or HEp3 human laryngeal carcinoma cell line, all αvβ3 negative, were used to grow the solid human tumors on the CAMs of chick embryos. A single cell suspension of 8×10^6 M21-L, UCLAP-3, and FB or 5×10^5 HEp3 cells was first applied to the CAMs in a total volume of 30 μl of sterile HBSS. The windows were sealed with tape and the embryos were incubated for 7 days to allow growth of human tumor lesions. At the end of 7 days, now a 17-day embryo, the tumors were resected from the CAMs and trimmed free of surrounding CAM tissue. […]
The effects of peptide exposure to tumor-induced vasculature in the CAM assay system was also assessed. […]

vascular cell apoptosis = assay: Apoptosis in bFGF-treated CAM, Apop Tag staining; format: in vivo, chick; conditions: 300 μg/ml; treated two days prior; versus PBS or control peptide 69601
Experimental: CAM assays with growth factor-induced angiogenesis, as described in Example 4A, were also performed with the synthetic peptides of this invention to determine the effect of cyclic peptides on apoptosis. The peptides cyclo-RGDfV (66203) and cyclo-RADfV (69601) were prepared as described in Example 1. The peptide solutions or PBS were injected into the CAM preparation at a concentration of 300 μg/ml. At 24 and 48 hours, the filter paper and surrounding CAM tissue was dissected and stained with the Apop Tag to detect apoptosis.

Substance | tumor volume (M21-L melanoma tumor) | effect on tumor weight, UCLAP-3 (UCLAP-3 tumors) | inhibition of tumor-induced blood vessel formation [1] | increase in Apop Tag staining (vascular cell apoptosis) [fold]
cyclo (RADfV) (cyclo(RAD[dF]V); SMILES CC(C)[C@@H]1NC(=O)[C@@H](Cc2ccccc2)NC(=O)[C@H](CC(=O)O)NC(=O)[C@H](C)NC(=O)[C@H](CCCNC(=N)N)NC1=O) [Peptide 69601, reference compound] | approximately 360 mm^3 | lack of effect | – | –
cyclo (RGDfV) [Peptide 66203] | – | – | formation of blood vessels was inhibited | 3 to 4
